Values quoted from earlier work as cited in patent US20100016430A1, “MODIFIED COCONUT OILS WITH BROAD ANTIMICROBIAL SPECTRUM” (MALAYSIAN AGRICULTERAL RESEARCH AND DEVELOPMENT IN, priority 2005, published 2010).

Tests used:
C. albicans = conditions: Bergsson et al. 2001
C. trachomatis = conditions: for Effect on C. trachomatis: 10 mM concentration
H. pylori = conditions: 10 mM for 30 min at 37° C.
coliform = conditions: 250 and 500 ppm in naturally contaminated cottage cheese
Pseudomonas spp = conditions: 250 and 500 ppm in naturally contaminated cottage cheese

In the case of `CCCCCCCCCC(=O)O` [capric acid], the “Killing of C. albicans / antimicrobial effect” value (C. albicans) is listed as “fastest and most effective killing”.
In the case of `CCCCCCCCCCCC(=O)O` [lauric acid], the “Killing of C. albicans / antimicrobial effect” value (C. albicans) is listed as “fastest and most effective killing” and the “Inactivation of C. trachomatis” value (C. trachomatis; 5 mM for 5 min) is listed as “greater than 100,000 fold”.
For `CCCCCCCCCC(=O)OCC(O)CO` (stereo not drawn) [monocaprin], the “Activity against H. pylori” value (H. pylori) is given as “most active”.
In the case of `CCCCCCCC(=O)OCC(O)CO` (stereo not drawn) [monocaprylin], the “Effect on C. trachomatis” value (C. trachomatis) is given as “negligible effect”.
In the case of `CCCCCCCCCCCC(=O)OCC(O)CO` (stereo not drawn) [monolaurin], the “Activity against H. pylori” value (H. pylori) is given as “most active”, the Inhibition of coliform (coliform) is given as “more than 90%” and the “Inhibition of Pseudomonas spp” value (Pseudomonas spp) is given as “more than 90%”. The “Effect on C. trachomatis” value (C. trachomatis) was “negligible effect”.
In the case of `CCCCCCCCCCCCCC(=O)O` [myristic acid], the “Killing of C. albicans / antimicrobial effect” value (C. albicans) is listed as “do not shown antimicrobial effect”.
For `CCCCCCCC/C=C\CCCCCCCC(=O)O` [oleic acid], the “Killing of C. albicans / antimicrobial effect” value (C. albicans) is given as “do not shown antimicrobial effect”.
For `CCCCCC/C=C\CCCCCCCC(=O)O` [palmitoleic acid], the “Killing of C. albicans / antimicrobial effect” value (C. albicans) is given as “do not shown antimicrobial effect”.
